Source: US20130131161A1, “METHODS AND COMPOSITIONS FOR CARDIOVASCULAR DISEASES AND CONDITIONS” (priority 2009, published 2013)

System: Human umbilical vein endothelial cells (HUVECs)
Assay: Comparison of LA-419 and ISDN: NO and ONOO− release from HUVECs measured with tandem electrochemical nanosensors (Example 1)
Format: cell-based
Details: for NO release (mean ± S.D.) / ONOO− release (mean ± S.D.): 500 nM, 12 hours, then CaI (1.0 μM)
Protocol: Human umbilical vein endothelial cells (HUVECs) were isolated into primary cultures and purchased as proliferating cells from Clonetics (San Diego, Calif.). All cell culture donors were healthy, with no pregnancy or prenatal complications. The cultured cells were incubated in 95% air/5% CO2 at 37° C. and passage by an enzymatic (trypsin) procedure. The confluent cells (4 to 5×10^5 cells per 35-mm dish) were placed with minimum essential medium containing 3 mM L-arginine and 0.1 mM BH4 [(6R)-5,6,7,8-tetrahydrobiopterin]. Before the experiments, the cells (from second or third passage) were rinsed twice with Tyrode-HEPES buffer with 1.8 mM CaCl2. ISDN was obtained from Sigma-Aldrich.
Concurrent measurements of NO and ONOO^− were carried out with tandem electrochemical nanosensors combined into one working unit with a total diameter of 200-500 nm (FIG. 1). Their design was based on previously developed and well-characterized chemically modified carbon-fiber technology (Malinski and Taha, 1992; Lvovich and Scheeline, 1997). Each of the nanosensors was made by depositing a sensing material on the tip of a carbon fiber (length 4-5 μm, diameter 0.2-0.5 μm). The fibers were sealed with nonconductive epoxy and electrically connected to copper wires with conductive silver epoxy. A conductive film of polymeric nickel (II) tetrakis(3-methoxy-4-hydroxyphenyl)porphyrin for the NO-sensor and polymeric film of Mn (III) [2.2]paracyclophanylporphyrin was used for the ONOO^−-sensor.
A module of NO/ONOO^− nanosensors (diameter 1-2 μm) with a platinum wire (0.1 mm) counter electrode and saturated calomel reference electrode (SCE) were applied. Differential pulse voltammetry (DPV) and amperometry were performed with a computer-based Gamry VFP600 multichannel potentiostat. DPV was used to measure the basal NO and ONOO^− concentrations, and amperometry was used to measure changes in NO and ONOO^− concentrations from its basal level with time. The DPV current at the peak potential characteristic for NO oxidation (0.65 V) and ONOO^− reduction (−0.45 V) was directly proportional to the local concentrations of these compounds in the immediate vicinity of the sensor. Linear calibration curves (current vs. concentration) were constructed for each sensor from 10 nM to 3 μM before and after measurements with aliquots of NO and ONOO^− standard solutions, respectively. The detection limit of the sensors was 1.0 nM.
The quantification of each analyte (concentration in nM) was performed using a maximum current from amperograms and standard calibration curves. A reproducibility of measurements with nanosensors is relatively high (between 5-12%). […] The sensors were slowly raised 5±2 μm from the surface of a single endothelial cell. The eNOS agonist, calcium ionophore A23187 (CaI) as well as the different drugs were then added to the surrounding media at the cell surface with a nanoinjector that was also positioned by a computer controlled-micromanipulator.
The HUVEC preparation is stable over the course of these experiments with the cells remaining viable in culture for >24 hours. Under non-stimulating conditions, basal levels of NO release are very low (<30 nM). Measurement of NO release as a function of treatment was conducted in individual endothelial cells. Multiple measurements of NO release can be conducted on single cells following a brief refractory period. For robust statistical analysis, separate cells were used for each concentration and type of drug used in these analyses.

[1] = HUVECs from Non-Hispanic Whites

CC(=O)SC1COC2C(O[N+](=O)[O-])COC12 (stereo not drawn) [LA-419, S-(6-Nitro-oxi-hexahydro-furo[3,2-b]furan-3-1-il)thioacetate]
NO release (mean ± S.D.) (HUVECs from African Americans): 253 ± 15 nM | ONOO− release (mean ± S.D.) (HUVECs from African Americans): 532 ± 25 nM | NO release (mean ± S.D.) [1]: 409 ± 30 nM | ONOO− release (mean ± S.D.) [1]: 307 ± 11 nM | effect on NO release (HUVECs from both non-Hispanic whites and African Americans, identical conditions): small increase | NO/ONOO− ratio versus control samples (HUVECs, 12 h treatment): not significantly different from control samples
